Measured values published in US20120277161A1, “INHIBITION OF MULTIPLE CELL ACTIVATION PATHWAYS” (INTER-K PTY LIMITED, priority 2009, published 2012).

Assays:
[1] = test system: HT29 human colon cancer cells; test: Cell proliferation (MTT) assay, HT29 cells; format: cell-based
Protocol: (§1) 6.1 Cell Proliferation (MTT) Assay Single cell suspensions of viable trypsinised cells were seeded into 96-well tissue culture plates at a density of 2×10^3 cells per well in a volume of 100 μl of a suitable culture media supplemented with heat inactivated foetal calf serum (FCS) (e.g., Dulbecco's Modified Eagles Medium (DMEM), with 10% v/v FCS, 1% L-glutamine, 2% (v/v) Hepes, and antibiotics). A set of triplicate wells was prepared for each concentration of the peptide dendrimer being tested. Additional sample wells containing untreated cells or media alone were set up in each treatment plate and processed in parallel as reference controls. A zero-time plate of untreated cells and media-alone wells was simultaneously prepared and an MTT assay carried out on this plate at the time of addition of the kinase inhibitor (i.e., polypeptide or dendrimer) to treatment plates. All plates were cultured for 24 hours before addition of the test dendrimer.
(§2) To prepare the MTT solution 100 mg of MTT (3-(4,5-dimethylthiazolyl-2)-2,5-diphenyltetrazolium bromide) (Cat #. M-128, Sigma, St Louis Mo.), is mixed with 20 ml of PBS at pH 7.4. The resulting solution is filter sterilized (0.2 μM syringe filter) and stored at 4° C. protected from light until use. MTT substrate is cleaved in growing cells to yield a water insoluble salt. After solubilisation of the salt crystals, a coloured product is produced the measurement of which allows quantitation of the proliferative activity of the cultured cells.
(§3) Appropriate concentrations of the kinase inhibitor were prepared by dilution of freshly prepared sterile 1 mM stock solutions into cell culture media to give a final well volume of 200 μl containing 10% v/v FCS. The zero-plate was processed by addition of MTT at this time. Cell culture was continued for a further 24 or 48 hours before addition of 20 μl of MTT in PBS (5 mg/ml, 0.2 um filter sterilised). The MTT cell proliferation assay measures cell proliferation rate and, in instances where cell viability is compromised, the assay indicates a comparative reduction in cell viability. After a 3 hour incubation in the presence of MTT (5% CO2 in air at 37° C.), plates were centrifuged at 450 g for 5 minutes, supernatant was removed by gentle suction and precipitated tetrazolium salt resuspended into 150 μl DMSO:glycine (0.1M glycine, 0.1M NaCl pH 10.5) (6:1 v/v) solution. Plates were gently vortexed to complete solubilisation of crystalline material and absorbance was read at 550 nm using a microplate reader. Sample data were processed to determine the comparative growth of treated samples relative to untreated controls.
HT29 cells were cultured for 48 hours in the presence of selected dendrimers and proliferation of the cells was assessed by MTT assay essentially as described in Example 6.1. The results were calculated as percentage proliferation of control cells (not treated with dendrimer).

[2] = test system: ADDP human ovarian carcinoma cell line; test: Cell proliferation (MTT) assay, ADDP cells; format: cell-based
Protocol: as §1, §2, §3

IC50 ([1]; MTT, 48 hours)	Substance	dendrimer concentration required for total kill, HT29 cells ([1]; MTT, 48 hours)	inhibition of proliferation of HT29 cells ([1]; MTT, 48 hours)	observed inhibition in combination with oxaliplatin versus calculated additive effect, ADDP cells ([2]; 5 μM or 10 μM IK2 peptide, FIGS. 7A, 7B)	effect in combination with cisplatin versus calculated additive effect, ADDP cells ([2]; 30 μM IK2 peptide, FIG. 8)	inhibition of the growth of ADDP cancer cells in combination with cisplatin ([2]; compared to cisplatin or IK2 alone, FIG. 6)	inhibition of the growth of ADDP cancer cells in combination with oxaliplatin ([2]; compared to oxaliplatin or IK2 alone)	effect in combination with cisplatin versus calculated additive effect, HT29 cells ([1]; 30 μM IK2 peptide, FIG. 9)
1000 nM	dendrimer presenting 12 monomer units of the peptide RSKAKNPLYR [Dend 12-10(4)]	10 µM	more effective than Dend 9-10(4)	–	–	–	–	–
–	AAVALLPAVLLALLARSKAKNPLYR [IK2]	–	–	synergistic outcome	synergistic effect	high level inhibition of the growth	high level inhibition of the growth	synergistic effect
